Source: US20240277743A1, “RESTORING PHYSIOLOGY WITH SMALL MOLECULE MIMICS OF MISSING PROTEINS” (The Board of Trustees Of The University Of Illinois, priority 2014, published 2024)

Tests used:
Assay type in all cases: cell-based, Saccharomyces cerevisiae
trk1Δtrk2Δ cells [1] = assay: Disc diffusion assay of growth rescue; details: paper disc impregnated with AmB; FIG. 2C
Method: Disc diffusion assay. The assay was performed as previously described. National Committee for Clinical Laboratory Standards in Performance Standards for Antimicrobial Disk Susceptibility Tests; M2-A8 Approved Standard (NCCLS, Wayne) (2003).

trk1Δtrk2Δ S. cerevisiae = assay: Growth of trk1Δtrk2Δ yeast on normal potassium YPAD agar plates containing AmB; details: 125 nM in agar, normal potassium (10 mM)
Method: Yeast cell lines and growth conditions. Wild type S. cerevisiae (ATCC 9763), and trk1Δtrk2Δ S. cerevisiae (SGY 1528) were maintained with yeast peptone adenine dextrose (YPAD) growth media consisting of 10 g/L yeast extract, 20 g/L peptone, 20 g/L dextrose, 0.015 g/L adenine hemisulfate salt (final potassium concentration=10 mM). For solid media, 20 g/L agar was added to this same mixture. To culture trk1 Δtrk2Δ S. cerevisiae, additional potassium was added as potassium chloride (100 mM KCl). The media was adjusted to pH 5.0 using citric acid. After autoclave sterilization, dextrose was subsequently added as a sterile 20% w/v solution in water (dextrose solutions were filter-sterilized using a 0.22 μm filter). Liquid cultures were incubated at 30° C. on a rotary shaker (200 rpm). Solid cultures were maintained at 30° C. in an incubator. For solid media containing AmB (AK Scientific), the media was allowed to cool for 15 minutes before addition of AmB at a final concentration of 125 nM. AmB was added to the media as a solution in DMSO. Plates were examined for growth after 24-48 hours of incubation.

trk1Δtrk2Δ cells [2] = assay: Cell viability assay (propidium iodide staining); details: 125 nM AmB, 24 hours, FIG. 2H
Method: Cell viability assay. WT and trk1 Δtrk2Δ cells were inoculated in high potassium (100 mM KCl) YPAD. Starter cultures were grown at 30° ° C. for 14-15 hours. Cells were then cultured in high potassium YPAD at 30° ° C. for 2-2.5 hours. 100 μL of a 0.25 mg/mL propidium iodide (PI. Sigma-Aldrich P4864) solution was prepared. After 2-2.5 hours, cells were centrifuged at 800 g for 5 minutes, at 23° C. The supernatant was decanted, cells were resuspended in 40 mL of high potassium YPAD, vortexed, and centrifuged. The wash step was repeated. After pouring off the supernatant, cells were resuspended in 15 mL of high potassium YPAD, vortexed, and diluted to an OD600 of 0.5. To set one (WT, WT+PI, trk1Δtrk2Δ, and trk1Δtrk2Δ+PI) and set two (WT+PI+AmB, trk1 Δtrk2Δ+PI+AmB), 26.4 μL of DMSO were added to 1 mL aliquots of WT and trk1Δtrk2Δ, and incubated at 30° C. for 30 minutes. A 1% w/v low gelling temperature agarose (Sigma-Aldrich A9414) was prepared in normal potassium (10 mM) YPAD. When set one incubation completed, cells were pulse centrifuged, supernatant was removed, and resuspended in normal potassium YPAD to wash. […] The total number of PI stained cells was subtracted from the total cells recorded, and divided by total cells to give % viability. At least 200 cells were recorded per treatment group and 4 independent sets of data were obtained.

trk1Δtrk2Δ yeast = assay: Functional complementation of a protein with a small molecule assay (rescue broth microdilution)
Source text: (§1) Broth microdilution minimum inhibitory concentration (MIC) assay. The protocol for the MIC broth microdilution assay was adapted from the Clinical and Laboratory Standards Institute document M27-A2 and performed as previously described. Gray, K. C. et. al. Proc. Natl. Acad. Sci. U.S.A. 109, 2234-2239 (2012); Palacios, D. S. et al. J. Am. Chem. Soc. 129, 13804-13805 (2007).
(§2) Functional complementation of a protein with a small molecule assay. The protocol for the rescue broth microdilution assay was conducted as described in the MIC assay above with the following additions: trk1atrk2Δ yeast were grown in high potassium (100 mM) YPAD liquid media overnight and transferred to normal potassium YPAD liquid media containing vehicle or the indicated concentration of AmB.

wild type S. cerevisiae = assay: Growth of wild type cells treated with AmB
Source text: as §1, §2

C[C@@H]1[C@H](O)[C@@H](C)/C=C/C=C/C=C/C=C/C=C/C=C/C=C/[C@H](O[C@@H]2O[C@H](C)[C@@H](O)[C@H](N)[C@@H]2O)C[C@@H]2O[C@](O)(C[C@@H](O)C[C@@H](O)[C@H](O)CC[C@@H](O)C[C@@H](O)CC(=O)O[C@H]1C)C[C@H](O)[C@H]2C(=O)O [AmB, amphotericin B]
growth rescue in disc diffusion assay (trk1Δtrk2Δ cells [1]): dependence of the growth rescue on the concentration of AmB | restoration of growth of the trk1Δtrk2Δ mutant on agar plate (trk1Δtrk2Δ S. cerevisiae): restored vigorous growth | cell viability of AmB-rescued trk1Δtrk2Δ cells versus wild type (trk1Δtrk2Δ cells [2]): Equivalent levels of cell viability | trk1Δtrk2Δ yeast cell growth in broth dilution assay (trk1Δtrk2Δ yeast; at or above the minimum inhibitory concentration): no growth | trk1Δtrk2Δ yeast cell growth in broth dilution assay (trk1Δtrk2Δ yeast; intermediate concentrations, normal potassium YPAD, FIG. 2D): dose-dependent increase of growth | growth stimulatory effects on wild type cells (wild type S. cerevisiae): no growth stimulatory effects
